How the values were obtained:
5-HT2A receptors = test: 5-HT2A receptor binding (3H-ketanserin autoradiography) in prefrontal cortex after chronic PCP; type: in vivo, rat; settings: chronic PCP treatment
Source text: In order to further validate this chronic PCP model, the effects of this treatment paradigm on 5-HT2A receptors within the prefrontal cortex was investigated. Chronic PCP treatment produced a significant decrease in 5-HT2A receptors in layer II & III (controls 158±6, PCP 139±4 fmolmg^−1) and layers V & VI (controls 82±4, PCP 69±3 fmolmg^−1). This is entirely consistent with post mortem studies of 5-HT2A receptor binding from schizophrenic patents (Laurelle, M. et al).
5-HT2A receptor binding: Sections from the level of the prefrontal cortex were preincubated for two consecutive washes at room temperature in 50mM Tris HCl buffer pH 7.4 to remove endogenous ligand. Total binding was defined using 0.71 nM (Wolkin, A. et al) ^3H-ketanserin in the presence of 1μM prazozin and 1μM tetrabenazine (to block non 5-HT2A binding). Non-specific binding was defined using 50nM spiperone. Sections were incubated with the appropriate ligand solution for 1 hour at room temperature then washed twice for 10 minutes in ice cold buffer before being rinsed in ice cold water and rapidly air dried. The sections were then exposed to film (Biomax MR, Kodak) with previously calibrated (Wolkin, A. et al) ^3H-standards.
Autoradiograms were analysed using MCID densitometry system. Results were statistically analysed using a one-way ANOVA followed by a student Newman-Keuls post hoc test.

parvalbumin mRNA = test: Parvalbumin mRNA in situ hybridisation in chronic PCP model; type: in vivo, rat; settings: chronic PCP treatment, alone or with clozapine or haloperidol
Description: In order to validate further this chronic PCP model the effect of this treatment paradigm on parvalbumin mRNA expression was investigated.
In situ hybridisation: a 45mer oligonucleotide probe was designed against bases 223-267 of the rat parvalbumin gene (GenBank accession number A819345). In situ hybridisation was carried out according to the method of Wisden and Morris (1994).

[1] = tested on: UNC5H1 (a netrin receptor); test: Rat Atlas Array, prefrontal cortex, chronic PCP model; type: in vivo
Description: (§5) Rats were injected with PCP (2.58 mg/kg) or vehicle i.p. for 5 days according to the YRING PCP model. […] On the same day, the rats began a course of i.p. injections every 2.5 days with either PCP (2.58 mg/kg) or vehicle.
(§6) 21 days after minipump implantation, animals were killed by cervical dislocation and the prefrontal cortex dissected and stored at −70° C. RNA was then prepared according to the protocol below and the corresponding cDNA synthesis and hybridisation procedure were conducted using the rat Atlas Array kit according to the manufacturer's instructions (Clontech).
(§7) Results are expressed as mean relative optical densities ±SEM. Statistical significance was defined as P<0.05. N=¾ per group.
(§8) Frozen tissue already resides in the ribolyser tubes from the dissection procedure • 1) Add 1.1 ml Qiagen lysis buffer (containing β-mercaptoethanol, final volume =3%). • 2) Perform 3×20 sec homogenisations at 6.5 g in a ribolyser. • 3) Spin 3 min in microfuge. • 4) Decant to fresh tube and re-spin 3 min. • 5) Decide at this stage if you want to dilute supernatant with more lysis buffer. • 6) Add equal volume of phenol/CHCl3 pH4.7, vortex 30 sec and leave on ice for 10 min. • 7) Re-vortex and spin 4° C. 5-10 min at 1500 g. • 8) Decant supernatant and add 100 μl H2O. Add an equal volume of phenol/CHCl3 pH4.7, vortex, spin 5-10 min at 1500 g. • 9) Decant supernatant and add 100 μl H2O. […]

Synapsins 1A&1B = test: as above; type: in vivo
Description: as §5, §6, §7, §8

CIRL1 mRNA = test: Semi-quantitative RT-PCR, prefrontal cortex, chronic PCP and antipsychotic treatment; type: in vivo, rat; settings: chronic PCP treatment
Description: FIG. 14 illustrates the level of CIRL1 mRNA present in the prefrontal cortex of rat brain following chronic PCP and antipsychotic treatment (n=12 for all groups apart from veh-veh where n=11). […] and […] (SEQ ID NOS: 25-26) were the primer sequences used to amplify this product.
(§1) RT-PCR for specific isoforms of CIRL was then conducted in the prefrontal cortex.
(§2) 1 ml of lysis buffer (Qiagen), including 1% β-mercaptoethanol, was added to approximately 50-100 mg of brain tissue. Tissue samples were homogenised using a ribolyser (Hybaid) with 3 bursts at 6.5 g lasting 20 seconds each. Samples were then spun at room temperature in a microfuge for 3 minutes. The supernatant was removed and re-spun for a further 3 minutes. The supernatant was decanted to a fresh tube to which an equal volume of 70% ethanol was added. The remaining RNA isolation procedure was carried out according to the manufacturer's protocol (Qiagen).
(§3) Synthesis of cDNA was carried out according to manufacturers protocols (Life Technologies). Briefly 3-5μg of total RNA was reverse transcribed using oligo dT priming. After cDNA synthesis, samples were aliquoted and stored at −70° C. […]
(§4) Alterations in expression levels were determined by semi-quantitative PCR. […] Samples were removed over 4 consecutive cycles, however, the first cycle to be removed sometimes varied depending on when logarithmic amplification was detected. […]

CIRL3 variant AA mRNA = test: as above; type: in vivo, rat; settings: chronic PCP treatment
Description: FIG. 16 illustrates the level of CIRL3 variant AA mRNA present in the prefrontal cortex of rat brain following chronic PCP and antipsychotic treatment (n=12 for all groups apart from veh-veh where n=11) […] and […] (SEQ ID NOS: 29-30) were the primer sequences used to amplify this product.
as §1, §2, §3, §4

Compound: c1ccc(C2(N3CCCCC3)CCCCC2)cc1 [PCP, phencyclidine]
- 5-HT2A receptors, prefrontal cortex layer II & III (5-HT2A receptors): 139±4 fmolmg^−1
- 5-HT2A receptors, prefrontal cortex layers V & VI (5-HT2A receptors): 69±3 fmolmg^−1
- parvalbumin mRNA, prelimbic region of the prefrontal cortex (parvalbumin mRNA): 0.0536±0.0023 relative optical density (ROD)
- parvalbumin mRNA, ventral reticular nucleus of the thalamus (parvalbumin mRNA): 0.5032±0.0194 ROD
- UNC5H1 expression (Atlas Array) [1]: 3936 ± 472 relative optical densities
- Synapsins 1A&1B expression (Atlas Array) (Synapsins 1A&1B): 23020 ± 1412 relative optical densities
- expression of CIRL1 (RT-PCR) (CIRL1 mRNA): reduced
- expression of CIRL3 (AA) (RT-PCR) (CIRL3 variant AA mRNA): reduced
